Measurements from ChEMBL document CHEMBL1201862, “PubChem BioAssay data set” (2004).
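Dose response: 5 concentrations. Exposure: 48 h. Format: 96-well plates. Endpoint: linear interpolation; highest concentration if not reached. GI50 = concentration required for 50% inhibition of growth.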 Active and inactive are the calls of the source. No stated cut-off is given here; in the data, active = GI50 up to about 1.1 µM and inactive = higher.

Key:
Assay in all cases: NCI tumour cell line growth inhibition, 48 h
[1] = system: DMS-114
[2] = system: M19-MEL
[3] = system: SK-OV-3
[4] = system: EKVX
[5] = system: UO-31
[6] = system: SNB-19
[7] = system: ACHN
[8] = system: NCI-H460
[9] = system: K562
[10] = system: OVCAR-5
[11] = system: OVCAR-4
[12] = system: HCC 2998
[13] = system: Malme-3M
[14] = system: TK-10
[15] = system: HOP-62
[16] = system: LXFL 529
[17] = system: 786-0
[18] = system: HOP-18
[19] = system: UACC-257
[20] = system: NCI-H23
[21] = system: HCT-116
[22] = system: M14
[23] = system: U-251
[24] = system: XF498
[25] = system: SF-295
[26] = system: SK-MEL-2
[27] = system: NCI-H522
[28] = system: HOP-92
[29] = system: CCRF-CEM
[30] = system: DMS-273
[31] = system: OVCAR-8
[32] = system: SK-MEL-5
[33] = system: SF-539
[34] = system: A549
[35] = system: IGROV-1
[36] = system: HL-60
[37] = system: RPMI-8226
[38] = system: NCI-H226
[39] = system: SK-MEL-28
[40] = system: HCT-15
[41] = system: SNB-78
[42] = system: SN12C
[43] = system: COLO 205
[44] = system: HT-29
[45] = system: KM12
[46] = system: SF-268
[47] = system: MOLT-4
[48] = system: SNB-75
[49] = system: OVCAR-3
[50] = system: DLD-1

Measured: GI50

COc1ccc(N2C(=O)c3c(c4[nH]c5ccc(OC)cc5c4c4ccc(C(C)(C)C)cc34)C2=O)cc1
inactive: [1] > 100 µM | [2] > 100 µM | [3] > 100 µM | [4] > 100 µM | [5] > 100 µM | [6] > 100 µM | [7] > 100 µM | [8] > 100 µM | [9] > 100 µM | [10] > 100 µM | [11] > 100 µM | [12] > 100 µM | [13] > 100 µM | [14] > 100 µM | [15] > 100 µM | [16] > 100 µM | [17] > 100 µM | [18] > 100 µM | [19] > 100 µM | [20] > 100 µM | [21] > 100 µM | [22] > 100 µM | [23] > 100 µM | [24] > 100 µM | [25] > 100 µM | [26] > 100 µM | [27] > 100 µM | [28] > 100 µM | [29] > 100 µM | [30] > 100 µM | [31] 92.7 µM | [32] > 100 µM | [33] > 100 µM | [34] > 100 µM | [35] > 100 µM | [36] 53.2 µM | [37] > 100 µM | [38] > 100 µM | [39] > 100 µM | [41] > 100 µM | [42] > 100 µM | [43] > 100 µM | [44] > 100 µM | [45] > 100 µM | [46] > 100 µM | [47] > 100 µM | [48] > 100 µM | [49] > 100 µM | [50] > 100 µM
> 100 µM: [40]
